Measurements taken from ChEMBL document CHEMBL5370648, “Rational Design of Bioorthogonally Activatable PROTAC for Tumor-Targeted Protein Degradation” (J Med Chem, 2023).
The source made the active and inactive calls. The rule behind the calls is not given here.

Key:
[1] = Toxicity in BALB/c nude mouse assessed as animal death at 10 mg/kg measured after 16 days in presence of IR808-TZ; type: organism-based; settings: in vivo, 384 h, time 16 day
MCF7 [2] = assay: Antitumor activity against IR808-TZ treated human MCF7 cells xenografted in BALB/c nude mouse assessed as fold increase in tumor volume at 20 mg/kg measured at day 23 post injection; type: functional; settings: time 23 day
MCF7 [3] = assay: Antitumor activity against human MCF7 cells xenografted in BALB/c nude mouse assessed as fold increase in tumor volume at 20 mg/kg measured at day 23 post injection; type: functional; settings: time 23 day
[4] = Drug uptake in 12 hrs BODIPY-TZ treated human […] cells assessed as strong fluorescence at 600 nM measured after 30 mins by fluorescence microscopy analysis; type: ADME, cell-based; settings: t47d, 0.5 h, 0.6 µM
[5] = biological target: T1, von Hippel-Lindau disease tumor suppressor/Bromodomain-containing protein 4 (Homo sapiens, UniProt O60885+P40337); assay: PROTAC activity at BRD4/VHL E3 ligase in 12 hrs BODIPY-TZ treated human MCF7 cells assessed as suppression of c-Myc expression incubated for 48 hrs by Western blot analysis; type: cell-based
T1 sequence (P40337 whole entry, looked up, other chains not shown): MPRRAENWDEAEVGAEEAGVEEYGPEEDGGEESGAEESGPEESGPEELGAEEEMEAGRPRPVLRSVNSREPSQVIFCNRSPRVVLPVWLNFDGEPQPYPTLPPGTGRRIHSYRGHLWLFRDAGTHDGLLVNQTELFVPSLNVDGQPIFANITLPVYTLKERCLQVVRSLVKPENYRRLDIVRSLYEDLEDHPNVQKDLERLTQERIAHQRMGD

[6] = biological target: T1, von Hippel-Lindau disease tumor suppressor/Bromodomain-containing protein 4; assay: PROTAC activity at BRD4/VHL E3 ligase in 12 hrs BODIPY-TZ treated human T47D cells assessed as reduction in BRD4 expression at upto 2.0 uM incubated for 48 hrs by Western blot analysis; type: cell-based
[7] = biological target: T2, von Hippel-Lindau disease tumor suppressor/Bromodomain-containing protein 3 (Homo sapiens) (UniProt Q15059+P40337); assay: PROTAC activity at BRD3/VHL E3 ligase in 12 hrs BODIPY-TZ treated human MDA-MB-231 cells assessed as reduction in […] expression at upto 2.0 uM incubated for 48 hrs by Western blot analysis; type: cell-based
T2 sequence (P40337 whole entry partner): as the sequence (P40337 whole entry, looked up, other chains not shown) above
T2 sequence (Q15059 2-726 limits assumed): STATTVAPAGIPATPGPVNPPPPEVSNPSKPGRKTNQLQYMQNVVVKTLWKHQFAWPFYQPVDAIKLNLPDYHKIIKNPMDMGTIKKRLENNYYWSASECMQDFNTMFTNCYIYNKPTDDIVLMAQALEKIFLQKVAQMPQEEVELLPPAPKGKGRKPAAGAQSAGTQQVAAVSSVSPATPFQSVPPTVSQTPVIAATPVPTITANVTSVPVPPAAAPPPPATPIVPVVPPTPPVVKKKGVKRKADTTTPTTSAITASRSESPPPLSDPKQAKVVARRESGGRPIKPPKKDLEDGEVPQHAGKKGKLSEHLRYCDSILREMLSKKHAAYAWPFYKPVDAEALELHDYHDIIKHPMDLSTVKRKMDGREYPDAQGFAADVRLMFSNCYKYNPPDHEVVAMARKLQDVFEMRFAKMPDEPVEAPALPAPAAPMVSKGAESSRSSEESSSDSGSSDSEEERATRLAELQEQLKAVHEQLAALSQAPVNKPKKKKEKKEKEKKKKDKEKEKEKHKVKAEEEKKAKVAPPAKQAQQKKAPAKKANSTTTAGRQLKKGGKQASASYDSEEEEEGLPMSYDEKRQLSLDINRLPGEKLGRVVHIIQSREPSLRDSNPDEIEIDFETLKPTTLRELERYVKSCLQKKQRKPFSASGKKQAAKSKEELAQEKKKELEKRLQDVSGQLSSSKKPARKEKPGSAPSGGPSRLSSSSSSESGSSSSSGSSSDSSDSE

[8] = biological target: T1, von Hippel-Lindau disease tumor suppressor/Bromodomain-containing protein 4; assay: PROTAC activity at BRD4/VHL E3 ligase in human MCF7 cells assessed as induction of degradation of intracellular BRD4 at 200 nM incubated for 48 hrs by immunofluorescence staining assay; type: cell-based
[9] = biological target: T1, von Hippel-Lindau disease tumor suppressor/Bromodomain-containing protein 4; assay: PROTAC activity at BRD4/VHL E3 ligase in human T47D cells assessed as induction of degradation of intracellular BRD4 at 200 nM incubated for 48 hrs by immunofluorescence staining assay; type: cell-based
[10] = Retention time of the compound by HPLC method; type: physicochemical
MDA-MB-231 [11] = assay: Cytotoxicity against 12 hrs BODIPY-TZ treated human MDA-MB-231 cells assessed as inhbition of cell growth measured after 48 hrs by CCK-8 method; type: functional, cell-based
MDA-MB-231 [12] = assay: Cytotoxicity against human MDA-MB-231 cells assessed as inhbition of cell growth measured after 48 hrs by CCK-8 method; type: functional, cell-based; settings: MDA-MB-231, 48 h
[13] = biological target: T2, von Hippel-Lindau disease tumor suppressor/Bromodomain-containing protein 3 (Homo sapiens); assay: PROTAC activity at BRD3/VHL E3 ligase in 12 hrs BODIPY-TZ treated human MCF7 cells assessed as reduction in BRD3 expression at upto 2.0 uM incubated for 48 hrs by Western blot analysis; type: cell-based
[14] = biological target: T1, von Hippel-Lindau disease tumor suppressor/Bromodomain-containing protein 4; assay: PROTAC activity at BRD4/VHL E3 ligase in 12 hrs BODIPY-TZ treated human T47D cells assessed as induction of degradation of BRD4 at upto 1000 nM incubated for 48 hrs in presence of MLN4924 by immunofluorescence staining assay; type: cell-based
[15] = biological target: T1, von Hippel-Lindau disease tumor suppressor/Bromodomain-containing protein 4; assay: PROTAC activity at BRD4/VHL E3 ligase in 12 hrs BODIPY-TZ treated human T47D cells assessed as degradation of BRD4 expression incubated for 48 hrs by Western blot analysis; type: cell-based
[16] = biological target: T1, von Hippel-Lindau disease tumor suppressor/Bromodomain-containing protein 4; assay: PROTAC activity at BRD4/VHL E3 ligase in 12 hrs BODIPY-TZ treated human MCF7 cells assessed as reduction in BRD4 expression at upto 2.0 uM incubated for 48 hrs by Western blot analysis; type: cell-based
[17] = biological target: T1, von Hippel-Lindau disease tumor suppressor/Bromodomain-containing protein 4; assay: PROTAC activity at BRD4/VHL E3 ligase in 12 hrs BODIPY-TZ treated human T47D cells assessed as activation of caspase-3 expression incubated for 48 hrs by Western blot analysis; type: cell-based
[18] = biological target: T1, von Hippel-Lindau disease tumor suppressor/Bromodomain-containing protein 4; assay: PROTAC activity at BRD4/VHL E3 ligase in 12 hrs BODIPY-TZ treated human T47D cells assessed as induction of degradation of BRD4 at upto 1000 nM incubated for 48 hrs in presence of MG132 by immunofluorescence staining assay; type: cell-based
[19] = biological target: T1, von Hippel-Lindau disease tumor suppressor/Bromodomain-containing protein 4; assay: PROTAC activity at BRD4/VHL E3 ligase in human T47D cells assessed as decrease in BRD4 expression at upto 2.0 uM incubated for 48 hrs by Western blot analysis; type: cell-based
MCF7 [20] = assay: Antitumor activity against IR808-TZ treated human MCF7 cells xenografted in BALB/c nude mouse assessed as tumor growth inhibition at 20 mg/kg measured after 16 days; type: functional, organism-based; settings: time 16.0 day
T47D = assay: Cytotoxicity against human T47D cells assessed as inhbition of cell growth measured after 48 hrs by CCK-8 method; type: functional, cell-based
[21] = biological target: T1, von Hippel-Lindau disease tumor suppressor/Bromodomain-containing protein 4; assay: PROTAC activity at BRD4/VHL E3 ligase in human MCF7 cells assessed as decrease in BRD4 expression at upto 2.0 uM incubated for 48 hrs by Western blot analysis; type: cell-based
[22] = biological target: T1, von Hippel-Lindau disease tumor suppressor/Bromodomain-containing protein 4; assay: PROTAC activity at BRD4/VHL E3 ligase in 12 hrs BODIPY-TZ treated human MDA-MB-231 cells assessed as activation of caspase-3 expression incubated for 48 hrs by Western blot analysis; type: cell-based
[23] = biological target: T1, von Hippel-Lindau disease tumor suppressor/Bromodomain-containing protein 4; assay: PROTAC activity at BRD4/VHL E3 ligase in 12 hrs BODIPY-TZ treated human T47D cells assessed as suppression of c-Myc expression incubated for 48 hrs by Western blot analysis; type: cell-based
[24] = biological target: T1, von Hippel-Lindau disease tumor suppressor/Bromodomain-containing protein 4; assay: PROTAC activity at BRD4/VHL E3 ligase in 12 hrs BODIPY-TZ treated human MCF7 cells assessed as activation of caspase-3 expression incubated for 48 hrs by Western blot analysis; type: cell-based
[25] = biological target: T1, von Hippel-Lindau disease tumor suppressor/Bromodomain-containing protein 4; assay: PROTAC activity at BRD4/VHL E3 ligase in human MDA-MB-231 cells assessed as induction of degradation of intracellular BRD4 at 200 nM incubated for 48 hrs by immunofluorescence staining assay; type: cell-based
[26] = biological target: T1, von Hippel-Lindau disease tumor suppressor/Bromodomain-containing protein 4; assay: PROTAC activity at BRD4/VHL E3 ligase in 12 hrs BODIPY-TZ treated human MDA-MB-231 cells assessed as degradation of BRD4 expression incubated for 48 hrs by Western blot analysis; type: cell-based
MCF7 [27] = assay: Antitumor activity against human MCF7 cells xenografted in BALB/c nude mouse assessed as apoptosis at 20 mg/kg measured after 48 hrs by Western blot analysis; type: functional, organism-based
MCF7 [28] = assay: Antitumor activity against IR808-TZ treated human MCF7 cells xenografted in BALB/c nude mouse model assessed as inhibition of tumor cell proliferation by measuring reduction in Ki67 staining at 20 mg/kg administered for 16 days by immunohistochemical analysis; type: functional, organism-based; settings: time 16.0 day
[29] = biological target: T1, von Hippel-Lindau disease tumor suppressor/Bromodomain-containing protein 4; assay: PROTAC activity at BRD4/VHL E3 ligase in human MDA-MB-231 cells assessed as decrease in BRD4 expression at upto 2.0 uM incubated for 48 hrs by Western blot analysis; type: cell-based
[30] = biological target: T1, von Hippel-Lindau disease tumor suppressor/Bromodomain-containing protein 4; assay: In vivo PROTAC activity at BRD4/VHL E3 ligase in BALB/c nude mouse xenografted with human MCF7 cells assessed as reduction in BRD4 protein level in tumor 20 mg/kg measured after 48 hrs by Western blot analysis; type: functional, organism-based

With `CC1=CC(C)=[N+]2C1=C(c1cccc(-c3nnc(C)nn3)c1)c1c(C)cc(C)n1[B-]2(F)F` the Activity [1] was “Toxic”, the “fold change (FC)” value (MCF7 [2]) was 1.74 and the “fold change (FC)” value (MCF7 [3]) was 5.98. For the same compound, the Drug uptake [4] was “Active”, the Activity [5] was “Active” and the Activity [6] was “Active”. For the same compound, the Activity [7] was “Active”, the Activity [8] was “inactive” and the Activity [9] was “inactive”. For the same compound, the Retention_time [10] was 19.92 min, the IC50 (MDA-MB-231 [11]) was 326 nM and the IC50 (MDA-MB-231 [12]) was 652 nM. The Activity [13] was “Active”, the Activity [14] was “inactive” and the Activity [15] was “Active”. For the same compound, the Activity [16] was “Active”, the Activity [17] was “Active” and the Activity [18] was “inactive”. The Activity [19] was “inactive”, the Activity (MCF7 [20]) was “Active” and the IC50 (T47D) was 1760 nM. The Activity [21] was “inactive”, the Activity [22] was “Active” and the Activity [23] was “Active”. For the same compound, the Activity [24] was “Active”, the Activity [25] was “inactive” and the Activity [26] was “Active”. For the same compound, the Activity (MCF7 [27]) was “inactive”, the Activity (MCF7 [28]) was “Active” and the Activity [29] was “inactive”. The Activity [30] was “inactive”.
